In patent US9359358B2, “Cyclohexyl azetidine derivatives as JAK inhibitors” (Incyte Holdings Corporation, priority 2011, dated 2016):

Assays:
[1] = biological target: T1, human JAK1 (Homo sapiens, UniProt P23458); assay: In Vitro JAK Kinase Assay (HTRF, phosphorylation of a biotinylated peptide), JAK1; format: biochemical; conditions: Table 5; catalytic domain a.a. 837-1142, assay of Example A
T1 construct: human JAK1 (a.a. 837-1142); His tag (N); made in house; host or cells: insect cells (baculovirus)
Method in brief: (§1)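 HTRF detection (SA-APC plus Eu-labeled anti-phosphotyrosine Py20, 40 min after EDTA stop) quantified biotinylated-peptide phosphorylation. Kinase reactions with human JAK1 or JAK2 catalytic domains lasted 1 h at room temperature.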

[2] = biological target: T2, human JAK2 (Homo sapiens, UniProt O60674); assay: In Vitro JAK Kinase Assay (HTRF, phosphorylation of a biotinylated peptide), JAK2; format: biochemical; conditions: Table 5; assay of Example A
T2 construct: JAK2 (a.a. 828-1132); His tag (N); made in house; host or cells: insect cells (baculovirus)
Method in brief: as §1

T1 sequence (P23458 849-1154): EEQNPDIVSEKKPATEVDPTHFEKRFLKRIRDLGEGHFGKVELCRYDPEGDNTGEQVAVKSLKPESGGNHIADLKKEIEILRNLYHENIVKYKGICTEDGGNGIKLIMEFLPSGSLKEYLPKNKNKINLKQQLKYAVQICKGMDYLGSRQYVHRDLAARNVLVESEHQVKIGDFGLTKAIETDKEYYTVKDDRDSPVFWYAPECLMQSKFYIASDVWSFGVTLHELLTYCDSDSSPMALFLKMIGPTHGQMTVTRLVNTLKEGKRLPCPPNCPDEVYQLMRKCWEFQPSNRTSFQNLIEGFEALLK
T2 sequence (O60674 828-1132): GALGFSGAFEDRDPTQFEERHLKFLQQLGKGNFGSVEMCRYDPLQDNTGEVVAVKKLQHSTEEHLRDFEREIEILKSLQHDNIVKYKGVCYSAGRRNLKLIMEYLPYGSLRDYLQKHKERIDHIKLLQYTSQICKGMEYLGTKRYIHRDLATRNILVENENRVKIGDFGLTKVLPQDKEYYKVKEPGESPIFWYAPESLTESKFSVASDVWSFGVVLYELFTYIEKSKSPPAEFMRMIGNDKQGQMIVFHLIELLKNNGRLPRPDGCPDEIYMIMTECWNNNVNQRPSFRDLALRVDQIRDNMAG

Row | SMILES | IC50 [1] [nM] | JAK2/JAK1 IC50 ratio [2]
1 | CN(C)C(=O)c1cc(O[C@H]2CC[C@@H](N3CC(CC#N)(n4cc(-c5ncnc6[nH]ccc56)cn4)C3)CC2)nc(C(F)(F)F)c1 [Example 81, 2-[(cis-4-{3-(cyanomethyl)-3-[4-(7H-pyrrolo[2,3-d]pyrimidin-4-yl)-1H-pyrazol-1-yl]azetidin-1-yl}cyclohexyl)oxy]-N,N-dimethyl-6-(trifluoromethyl)isonicotinamide bis(trifluoroacetate)] | < 10 | ≧10
2 | CN(CCO)C(=O)c1cc(O[C@H]2CC[C@@H](N3CC(CC#N)(n4cc(-c5ncnc6[nH]ccc56)cn4)C3)CC2)nc(C(F)(F)F)c1 [Example 82, 2-[(cis-4-{3-(cyanomethyl)-3-[4-(7H-pyrrolo[2,3-d]pyrimidin-4-yl)-1H-pyrazol-1-yl]azetidin-1-yl}cyclohexyl)oxy]-N-(2-hydroxyethyl)-N-methyl-6-(trifluoromethyl)isonicotinamide bis(trifluoroacetate)] | < 10 | ≧10
3 | CC(C)NC(=O)c1cc(O[C@H]2CC[C@@H](N3CC(CC#N)(n4cc(-c5ncnc6[nH]ccc56)cn4)C3)CC2)nc(C(F)(F)F)c1 [Example 83, 2-[(cis-4-{3-(cyanomethyl)-3-[4-(7H-pyrrolo[2,3-d]pyrimidin-4-yl)-1H-pyrazol-1-yl]azetidin-1-yl}cyclohexyl)oxy]-N-isopropyl-6-(trifluoromethyl)isonicotinamide bis(trifluoroacetate)] | < 10 | ≧10
4 | C[C@@H](CO)NC(=O)c1cc(O[C@H]2CC[C@@H](N3CC(CC#N)(n4cc(-c5ncnc6[nH]ccc56)cn4)C3)CC2)nc(C(F)(F)F)c1 [Example 84, 2-[(cis-4-{3-(cyanomethyl)-3-[4-(7H-pyrrolo[2,3-d]pyrimidin-4-yl)-1H-pyrazol-1-yl]azetidin-1-yl}cyclohexyl)oxy]-N-[(1S)-2-hydroxy-1-methylethyl]-6-(trifluoromethyl)isonicotinamide bis(trifluoroacetate)] | < 10 | ≧10
5 | C[C@H](CO)NC(=O)c1cc(O[C@H]2CC[C@@H](N3CC(CC#N)(n4cc(-c5ncnc6[nH]ccc56)cn4)C3)CC2)nc(C(F)(F)F)c1 [Example 85, 2-[(cis-4-{3-(cyanomethyl)-3-[4-(7H-pyrrolo[2,3-d]pyrimidin-4-yl)-1H-pyrazol-1-yl]azetidin-1-yl}cyclohexyl)oxy]-N-[(1R)-2-hydroxy-1-methylethyl]-6-(trifluoromethyl)isonicotinamide bis(trifluoroacetate)] | < 10 | ≧10
6 | N#CCC1(n2cc(-c3ncnc4[nH]ccc34)cn2)CN([C@H]2CC[C@@H](Oc3cc(C(=O)NC4CC4)cc(C(F)(F)F)n3)CC2)C1 [Example 86, 2-[(cis-4-{3-(cyanomethyl)-3-[4-(7H-pyrrolo[2,3-d]pyrimidin-4-yl)-1H-pyrazol-1-yl]azetidin-1-yl}cyclohexyl)oxy]-N-cyclopropyl-6-(trifluoromethyl)isonicotinamide bis(trifluoroacetate)] | < 10 | ≧10
7 | CN(C(=O)c1cc(O[C@H]2CC[C@@H](N3CC(CC#N)(n4cc(-c5ncnc6[nH]ccc56)cn4)C3)CC2)nc(C(F)(F)F)c1)C1CC1 [Example 87, 2-[(cis-4-{3-(cyanomethyl)-3-[4-(7H-pyrrolo[2,3-d]pyrimidin-4-yl)-1H-pyrazol-1-yl]azetidin-1-yl}cyclohexyl)oxy]-N-cyclopropyl-N-methyl-6-(trifluoromethyl)isonicotinamide bis(trifluoroacetate)] | < 10 | ≧10
8 | N#CCC1(n2cc(-c3ncnc4[nH]ccc34)cn2)CN([C@H]2CC[C@@H](Oc3cc(C(=O)N4CC(O)C4)cc(C(F)(F)F)n3)CC2)C1 [Example 89, {1-(cis-4-{[4-[(3-hydroxyazetidin-1-yl)carbonyl]-6-(trifluoromethyl)pyridin-2-yl]oxy}cyclohexyl)-3-[4-(7H-pyrrolo[2,3-d]pyrimidin-4-yl)-1H-pyrazol-1-yl]azetidin-3-yl}acetonitrile bis(trifluoroacetate)] | < 10 | ≧10
9 | N#CCC1(n2cc(-c3ncnc4[nH]ccc34)cn2)CN([C@H]2CC[C@@H](Oc3cc(C(=O)NC4CCC4)cc(C(F)(F)F)n3)CC2)C1 [Example 90, 2-[(cis-4-{3-(cyanomethyl)-3-[4-(7H-pyrrolo[2,3-d]pyrimidin-4-yl)-1H-pyrazol-1-yl]azetidin-1-yl}cyclohexyl)oxy]-N-cyclobutyl-6-(trifluoromethyl)isonicotinamide bis(trifluoroacetate)] | < 10 | ≧10
10 | N#CCC1(n2cc(-c3ncnc4[nH]ccc34)cn2)CN([C@H]2CC[C@@H](Oc3cc(C(=O)N4CC(C#N)C4)cc(C(F)(F)F)n3)CC2)C1 [Example 91, 1-[2-[(cis-4-{3-(cyanomethyl)-3-[4-(7H-pyrrolo[2,3-d]pyrimidin-4-yl)-1H-pyrazol-1-yl]azetidin-1-yl}cyclohexyl)oxy]-6-(trifluoromethyl)isonicotinoyl]azetidine-3-carbonitrile bis(trifluoroacetate)] | < 10 | ≧10
11 | N#CCC1(n2cc(-c3ncnc4[nH]ccc34)cn2)CN([C@H]2CC[C@@H](Oc3cc(CN4CCOCC4)cc(C(F)(F)F)n3)CC2)C1 [Example 92, {1-(cis-4-{[4-(morpholin-4-ylmethyl)-6-(trifluoromethyl)pyridin-2-yl]oxy}cyclohexyl)-3-[4-(7H-pyrrolo[2,3-d]pyrimidin-4-yl)-1H-pyrazol-1-yl]azetidin-3-yl}acetonitrile tris(trifluoroacetate)] | < 10 | ≧10
12 | N#CCC1(n2cc(-c3ncnc4[nH]ccc34)cn2)CN([C@H]2CC[C@@H](Oc3cc(CN4CC[C@@H](O)C4)cc(C(F)(F)F)n3)CC2)C1 [Example 95, {1-(cis-4-{[4-{[(3R)-3-hydroxypyrrolidin-1-yl]methyl}-6-(trifluoromethyl)pyridin-2-yl]oxy}cyclohexyl)-3-[4-(7H-pyrrolo[2,3-d]pyrimidin-4-yl)-1H-pyrazol-1-yl]azetidin-3-yl}acetonitrile pentakis(trifluoroacetate)] | < 10 | ≧10
13 | N#CCC1(n2cc(-c3ncnc4[nH]ccc34)cn2)CN([C@H]2CC[C@@H](Oc3cc(CN4CC[C@H](O)C4)cc(C(F)(F)F)n3)CC2)C1 [Example 96, {1-(cis-4-{[4-{[(3S)-3-hydroxypyrrolidin-1-yl]methyl}-6-(trifluoromethyl)pyridin-2-yl]oxy}cyclohexyl)-3-[4-(7H-pyrrolo[2,3-d]pyrimidin-4-yl)-1H-pyrazol-1-yl]azetidin-3-yl}acetonitrile tris(trifluoroacetate)] | < 10 | ≧10
14 | CC1(NCc2cc(O[C@H]3CC[C@@H](N4CC(CC#N)(n5cc(-c6ncnc7[nH]ccc67)cn5)C4)CC3)nc(C(F)(F)F)c2)COC1 [Example 98, {1-(cis-4-{[4-{[(3-methyloxetan-3-yl)amino]methyl}-6-(trifluoromethyl)pyridin-2-yl]oxy}cyclohexyl)-3-[4-(7H-pyrrolo[2,3-d]pyrimidin-4-yl)-1H-pyrazol-1-yl]azetidin-3-yl}acetonitrile tetrakis(trifluoroacetate)] | < 10 | ≧10
15 | N#CCC1(n2cc(-c3ncnc4[nH]ccc34)cn2)CN([C@H]2CC[C@@H](Oc3cc(Cn4ccnc4)cc(C(F)(F)F)n3)CC2)C1 [Example 99, {1-(cis-4-{[4-(1H-imidazol-1-ylmethyl)-6-(trifluoromethyl)pyridin-2-yl]oxy}cyclohexyl)-3-[4-(7H-pyrrolo[2,3-d]pyrimidin-4-yl)-1H-pyrazol-1-yl]azetidin-3-yl}acetonitrile tetrakis(trifluoroacetate)] | < 10 | ≧10
16 | N#CCC1(n2cc(-c3ncnc4[nH]ccc34)cn2)CN([C@H]2CC[C@@H](Oc3cc(Cn4cccn4)cc(C(F)(F)F)n3)CC2)C1 [Example 100, {1-(cis-4-{[4-(1H-pyrazol-1-ylmethyl)-6-(trifluoromethyl)pyridin-2-yl]oxy}cyclohexyl)-3-[4-(7H-pyrrolo[2,3-d]pyrimidin-4-yl)-1H-pyrazol-1-yl]azetidin-3-yl}acetonitrile tris(trifluoroacetate)] | < 10 | ≧10
